According to US20240091295A1, “PIPER NIGRUM COMPOSITION AND METHOD OF TREATING PAIN” (priority 2022, published 2024):

Test system: mice
Experiment: Acetic acid-induced writhing test
Assay type: in vivo
Details: 30 mg/kg i.p., vs control group
Method: Male Balb/c mice procured from the authorized animal supplier Biogen Laboratory Animal Facility, Bangalore, India were used for the animal experiments. The animals were housed in the animal facility of R&D Center, Vidya Herbs Pvt Ltd under controlled environmental conditions (temperature: 23±2° C., relative humidity: 35-50%, 12 h light/dark cycle). The animals were given commercial pellet diet and water ad libitum. All the animals were allowed to acclimatize to the environmental conditions before the start of experiments. The experimental protocols were approved by the Institutional Animal Ethics Committee (IAEC) of Vidya Herbs Pvt Ltd., Bangalore, India (VHPL/PCL/IAEC/01/2021).
Twenty-four male mice were randomized to four groups (n=6 in each group): Control group were given normal saline solution while positive control group received reference drug Diclofenac sodium (30 mg/kg). Two test doses of the inventive composition (25 and 50 mg/kg body weight) were used in the test. All the treatments were intraperitoneally injected. 30 min after the respective treatments, the animals were given 10 mL/kg body weight of 1% acetic acid intraperitoneally. The number of writhes were recorded after 10 min of acetic acid administration.
All the experimental data were analyzed by one way ANOVA followed by Tukey's multiple comparison test using GraphPad Prism 9.0 (GraphPad Software, Inc.). […]

O=C(O)Cc1ccccc1Nc1c(Cl)cccc1Cl [diclofenac sodium, Diclofenac sodium]
writhing inhibition: 86.55%
